Experiment: Stability in solution of 211At-labeling products of biotin-sarcosine-bis-B10 by radio-HPLC
Assay type: physicochemical
Description: FIGS. 22A-22D compare radio-HPLC chromatograms of reaction product from ^211At labeling of Compound 8 (see FIG. 21): 0.1 mg of Compound 8 was reacted with ^211At in 5% HOAc in MeOH/H2O without ChT at room temperature for 5 min (22A) and the reaction mixture sat at room temperature for about 1 h (22B); and 0.1 mg of Compound 8 was reacted with ^211At in 5% HOAc in MeOH/H2O with 10 μg of ChT at room temperature for 3 min. (22C) the reaction mixture after setting at room temperature for about 2 h (22D).
In an ^211At-labeling reaction with biotin-sarcosine-bis-B10, 8, a solution of [^211At]NaAt in 5% HOAc in MeOH/H2O was reacted at room temperature for 5 min without an oxidant. The reaction was quenched with 10 μL of 1 mg/mL Na2S2O5 (a reductant). The reaction provided one major ^211At labeled product (95%) as shown the radio-HPLC peak at about 10.1 min (FIG. 22A). […] In another ^211At-labeling reaction, the same reaction conditions as above were used except a chemical oxidant chloramine-T (ChT) was added to the reaction solution. The reaction with ChT provided multiple products that were eluted from 9-11 min. After sitting at room temperature for 2 h, a significant amount of free ^211At was observed (29%) (FIG. 22D).

3,5-B10H9-dioxa-Ph-Sar-Biotin [Compound 8]
free 211At observed (labeled with ChT, after sitting at room temperature for 2 h): 29% | change in 211At-labeled product in solution (labeled without oxidant, quenched, 1 h at room temperature): No change

From US20220354974A1, “REAGENTS AND METHODS FOR LABELING MOLECULES WITH ASTATINE ISOTOPES IN HIGHER OXIDATION STATES” (priority 2021, published 2022)
